Experiments:
[1] = test system: callus of cotton "CCRI 24"; experiment: Growth of cotton callus on medium with JA synthesis inhibitor; conditions: DIECA 200, 400, 800 μM or ibuprofen 20, 40, 80 μM in callus induction medium; hypocotyl explants
Protocol: (§1) Explants from “CCRI 24” were cut to consistent length and placed under the same conditions for cultivation. After one month, the growth of callus was observed and photographed with a camera and microscope. Statistics on the weights of callus and measurement of JA content were performed.

[2] = test system: JA content of callus of cotton "CCRI 24"; experiment: JA content in cotton callus (HPLC); conditions: DIECA 200, 400, 800 μM or ibuprofen 20, 40, 80 μM in callus induction medium
Protocol: as §1

[3] = test system: cell cycle-related genes of callus; experiment: Fluorescence quantitative PCR of cell cycle-related genes in cotton callus; conditions: DIECA 200, 400, 800 μM or ibuprofen 20, 40, 80 μM in callus induction medium
Protocol: Identification at the RNA level: RNA was extracted using RNA extraction kit (RNAprep Pure Polysaccharide Polyphenol Plant Total RNA Extraction Kit (DP441), manufacturer: TIANGEN BIOTECH (BEIJING) CO., LTD.), and then cDNA was obtained using two-step reverse transcription kit (a third-generation premix for two-step de-genomization and reverse transcription, Cat. No.: MR05201). cDNA as a template was added into a 96-well plate, with addition of SYBR®Green I chimeric dye (an antibody dye quantitative PCR premix, Cat. No.: MQ10101) and gene primers for three-step qPCR amplification. Finally, the relative gene expression was calculated based on the Ct value.
The steps of RNA extraction, reverse transcription, and fluorescence quantitative PCR were the same as above, and the sequences of primers were as follows: […]
as §1

MCF7 cells = experiment: Detection of GhJAZ1 protein entry into the nucleus, fluorescence microscope; assay type: cell-based, human; conditions: 0.5 μM
Source text: In order to explore how GhJAZ1 enters cancer cells, we cloned the genes of most tumor surface receptors, including uPAR (NCBI database accession number of NM_002659.4), CCK1R (NP_000721.1), CCK2R (NP_001350481.1), HER2 (NP_004439.2), GRPR (NP_005305.1), MUC1 (NP_001358649.1), VEGFR1 (NP_002010.2), Insulin receptor (NM_000208.4), NTR (XM_011528827.2), PSMA (XM_017017432.1), TFR1 (NM_001128148.3), TFR2 (NM_003227.4), PEPT1 (NM_005073.4), APN (NM_001150.3). The receptor proteins that interact with GhJAZ1 were then screened by yeast two hybrid (the steps of the experiment as Example 3). […] We detected the interaction of GhJAZ1 with uPA (as the ligand of uPAR, NCBI database accession number of NP_002649.2) and uPAR by yeast two hybrid (the steps of the experiment as Example 3). […] GhJAZ1+RFP (the amino acid sequence set forth in SEQ ID No. 81, corresponding encoding gene sequence set forth in SEQ ID No. 82) was ligated to pET-30a (+) vector (YouBio, Cat. No.: VT1212) between NdeI and HindIII, and GhJAZ1+RFP protein with red fluorescence was prokaryotically expressed and purified (the step of method as step 2 in Example 4) (A in FIG. 11), and then MCF7 cells were treated with GhJAZ1+RFP protein and observed by a fluorescence microscope.

| Compound | growth of callus of cotton [1] | JA content of callus [2] | cell cycle-related genes of callus [3] | entry into the nucleus of MCF7 cells (red fluorescence merged with blue nuclear fluorescence) (MCF7 cells) |
| --- | --- | --- | --- | --- |
| CC(C)Cc1ccc(C(C)C(=O)O)cc1 (stereo not shown) [ibuprofen] | significantly inhibit | significantly decreased | marked changes |  |
| GhJAZ1+RFP: GhJAZ1 fused with RFP, red fluorescence, amino acid sequence SEQ ID No. 81 |  |  |  | entered the nucleus |
| CCN(CC)C(=S)[S-].[Na+] [DIECA] | significantly inhibit | significantly decreased | marked changes |  |

Reference: patent US20240279288A1, “APPLICATION OF PLANT JAZ PROTEINS AND DERIVED POLYPEPTIDES IN PREVENTION AND TREATMENT OF HUMAN AND ANIMAL TUMORS” (ANYANG INSTITUTE OF SINO-COTTON INDUSTRY INNOVATION, priority 2021, published 2024)
